In patent publication US20070142411A1, “Use of cyclooxygenase-2 selective inhibitors for the treatment of schizophrenic disorders” (priority 2003, published 2007):

Legend:
human COX-1 = target: T1, human COX-1 (Homo sapiens, UniProt P23219); test: Inhibition of PGE2 release in COS cells stably transfected with human COX-1; assay type: cell-based; conditions: COS cells transfected with human COX-1, 30 μM arachidonic acid
T1 construct: expressed in transfected cells; host or cells: COS cells (stably transfected)
T1 sequence (P23219 24-599): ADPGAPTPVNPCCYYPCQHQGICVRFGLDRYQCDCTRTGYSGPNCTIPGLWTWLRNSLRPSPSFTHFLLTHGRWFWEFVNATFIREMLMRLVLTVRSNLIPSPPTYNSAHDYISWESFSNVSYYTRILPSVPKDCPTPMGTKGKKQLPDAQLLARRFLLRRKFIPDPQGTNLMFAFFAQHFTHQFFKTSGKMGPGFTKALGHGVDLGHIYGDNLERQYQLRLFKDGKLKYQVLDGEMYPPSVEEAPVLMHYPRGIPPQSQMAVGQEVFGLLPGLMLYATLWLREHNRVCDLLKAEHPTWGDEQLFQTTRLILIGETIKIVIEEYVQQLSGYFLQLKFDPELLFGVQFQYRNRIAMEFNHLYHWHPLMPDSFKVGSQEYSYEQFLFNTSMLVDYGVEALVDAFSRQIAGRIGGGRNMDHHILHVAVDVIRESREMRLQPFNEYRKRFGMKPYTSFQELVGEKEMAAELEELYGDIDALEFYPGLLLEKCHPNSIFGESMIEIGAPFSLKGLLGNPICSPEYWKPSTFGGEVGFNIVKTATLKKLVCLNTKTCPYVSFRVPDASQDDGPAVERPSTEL
Description: 24 Hours prior to experiment, COS cells were transferred from the 175 cm^2 flasks in which they were grown, onto 24-well cell culture plates using the following procedure. The incubation medium (Dulbecco's modified eagles medium (DMEM) supplemented with heat-inactivated foetal calf serum (10% v/v), penicillin (100 IU/ml), streptomycin (100 μg/ml) and genebcin (600 μg/ml)) was removed from a flask of confluent cells (1 flask at confluency contains approximately lx107 cells). 10 mI of phosphate buffered saline (PBS) was added to the flask to wash the cells. Having discarded the PBS, cells were then rinsed in 10 ml trypsin for 20 seconds, after which the trypsin was removed and the flask placed in an incubator (37°) for 1-2 minutes unbil cells became detached from the flask. The flask was then removed from the incubator and cells resuspended in 10 ml of fresh incubation medium. The contents of the flask was transferred to a 250 ml sterile container and the volume of incubation medium subsequently made up to 100 ml. […] If more than 1 flask of cells were required, the cells from the individual flasks were combined before being dispensed into the 24-well plates.
Following the overnight incubation, the incubation medium was completely removed from the 24-well cell culture plates and replaced with 250 μl fresh DMEM (37° C.). The test compounds were made up to 250× the required test concentration in DMSO and were added to the wells in a volume of 1 μl. […] Plates were then incubated for a further 15 minutes, after which the incubation medium was removed from each well of the plates and stored at −20° C., prior to determination of prostaglandin E2 (PGE2) levels using enzyme immunoassay. […] The selectivity ratio of inhibition of COX-1 versus COX-2 was calculated by comparing respective IC50 values.

human COX-2 = target: T2, human COX-2 (Homo sapiens, UniProt P35354); test: Inhibition of PGE2 release in COS cells stably transfected with human COX-2; assay type: cell-based; conditions: COS cells transfected with human COX-2, 30 μM arachidonic acid
T2 construct: expressed in transfected cells; host or cells: COS cells (stably transfected)
T2 sequence (P35354 18-604): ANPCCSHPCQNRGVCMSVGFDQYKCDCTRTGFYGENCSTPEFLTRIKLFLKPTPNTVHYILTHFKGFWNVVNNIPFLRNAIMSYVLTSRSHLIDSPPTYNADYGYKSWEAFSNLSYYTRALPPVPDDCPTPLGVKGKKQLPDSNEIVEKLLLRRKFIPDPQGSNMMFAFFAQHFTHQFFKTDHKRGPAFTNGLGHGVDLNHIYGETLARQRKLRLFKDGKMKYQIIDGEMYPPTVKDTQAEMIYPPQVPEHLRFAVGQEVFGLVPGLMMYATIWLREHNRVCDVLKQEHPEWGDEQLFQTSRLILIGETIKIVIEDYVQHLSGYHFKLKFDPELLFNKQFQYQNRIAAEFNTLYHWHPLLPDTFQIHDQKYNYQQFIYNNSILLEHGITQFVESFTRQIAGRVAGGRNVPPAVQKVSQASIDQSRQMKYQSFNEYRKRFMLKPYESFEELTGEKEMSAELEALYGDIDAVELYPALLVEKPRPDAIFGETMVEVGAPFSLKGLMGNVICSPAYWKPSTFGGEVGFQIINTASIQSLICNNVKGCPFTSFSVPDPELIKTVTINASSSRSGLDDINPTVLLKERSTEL

microsomal h-COX2 = target: T3, microsomal h-COX2 (Homo sapiens, UniProt P35354); test: Microsomal assay, h-COX2 preparation from baculovirus infected SF9 cells; assay type: biochemical; conditions: stated in text under the microsomal assay; read-out: IC50 values for inhibition of COX-2
T3 construct: made in house; host or cells: baculovirus infected SF9 cells (microsomal preparation)
T3 sequence (P35354 18-604): T2 sequence (P35354 18-604)
Description: Inhibitory activity against microsomal h-COX2 was assessed against a microsomal preparation from baculovirus infected SF9 cells. An aliquot of microsomal preparation was thawed slowly on ice and a 1/40,000 dilution prepared from it into the assay buffer (sterile water, degassed with argon containing 100 mM HEPES (pH 7.4), 10 mM EDTA (pH7.4), 1 mM phenol, 1 mM reduced glutathione, 20 mg/ml gelatin and 0.001 mM Hematin). Once diluted the enzyme solution was then sonicated for 5 seconds (Branson sonicator, setting 4, 1 cm tip) to ensure a homogeneous suspension. […] Plates were then mixed and incubated at room temperature for 1 hour. Following the incubation period, 40 μl of 0.5 μM arachidonic acid was added to each well to give a final concentration of 0.1 μM. Plates were then mixed and incubated for exactly 10 minutes (room temperature) prior to addition of 25 μl 1M HCl (hydrochloric acid) to each well to stop the reaction. 25 μl of 1M NaOH (sodium hydroxide) was then added to each well to neutralise the solution prior to determination of PGE2 levels by enzyme immunoassay (EIA).

IC50 (human COX-1) | IC50 (human COX-2) | IC50 (microsomal h-COX2) | SMILES
81300 nM | < 1 nM | – | CS(=O)(=O)c1ccc(-c2cc(C(F)(F)F)nc(Oc3ccc(F)cc3)n2)cc1 [Example 1.1, 2-(4-Fluorophenoxy)-4-[4-(methylsulfonyl)phenyl]-6-(tiifluoromethyl)pyrimidine]
2920 nM | 4 nM | – | COc1ccc(Oc2nc(-c3ccc(S(C)(=O)=O)cc3)cc(C(F)(F)F)n2)cc1 [Example 1.3]
– | – | ≤ 500 nM | CS(=O)(=O)c1ccc(-c2cc(C(F)(F)F)cc(NC3CCCCC3)n2)cc1 [Example 3.1, N-cyclohexyl-4-(trifluoromethyl)-6-[4-(methylsulfonyl)phenyl]pyridine-2-amine]
– | – | ≤ 500 nM | Cc1cc(NCc2cnn(C)c2)nc(-c2ccc(S(C)(=O)=O)cc2)c1 [Example 3.3, 4-methyl-N-[(1-methyl-1H-pyrazol-4-yl)methyl]-6-[4-(methylsulfonyl)phenyl]-2-pyridinamine]

More lines, now with the values behind:

SMILES | IC50 (human COX-1) | IC50 (human COX-2) | IC50 (microsomal h-COX2)
COc1ccc(-c2nn3ncccc3c2-c2ccc(S(C)(=O)=O)cc2)cc1 [2.2(ii), 3-(4-Methanesulfonyl-phenyl)-2-(4-methoxy-phenyl)-pyrazolo[1,5-b]pyridazine] | 3880 nM | – | –
CCOc1ccc(-c2nn3ncccc3c2-c2ccc(S(C)(=O)=O)cc2)cc1 [2.3(ii), 2-(4-Ethoxy-phenyl)-3-(4-methanesulfonyl-phenyl)-pyrazolo[1,5-b]pyridazine] | – | 3 nM | –
CS(=O)(=O)c1ccc(-c2c(-c3ccc(F)cc3)nn3nc(S(C)(=O)=O)ccc23)cc1 [2.4(iii), 2-(4-Fluoro-phenyl)-6-methanesulfonyl-3-(4-methanesulfonyl-phenyl)-pyrazolo[1,5-b]pyridazine] | – | 370 nM | –
CCOc1ccc(-c2nn3ncccc3c2-c2ccc(S(N)(=O)=O)cc2)cc1 [2.6(iv), 4-[2-(4-Ethoxy-phenyl)-pyrazolo[1,5-b]pyridazin-3-yl]-benzenesulfonamide] | 3830 nM | 0.44 nM | –
